Measurements reported in patent publication US7462614B2, “Imidazotriazine compounds” (Smithkline Beecham Corporation, priority 2003, dated 2008).

Target: T1, truncated human PLK1 (kinase domain) (Homo sapiens, UniProt P53350)
T1 construct: made in house; host or cells: baculovirus-infected T. ni insect cells
Assay: Assay for Inhibition of PLK1 (33P SPA enzyme activity)
Format: biochemical
Settings: 1 μM ATP, 2 nM enzyme; read-out: Ave pIC50 PLK Enzyme Inhibition (converted)
Procedure: I. Assay for Inhibition of PLK1
A. Preparation of 6× N-Terminal His-Tagged PLK Kinase Domain
All procedures are performed at 4° C. Cells are lysed in 25 mM HEPES, 200 mM NaCl, 25 mM imidazole; pH 8.0. The homogenate is centrifuged at 14K rpm in a SLA-1500 rotor for 40 min and the supernatant filtered through a 1.2 micron filter. The supernatant is loaded onto a Nickel chelating Sepharose (Amersham Pharmacia) column and washed with 25 mM HEPES, 500 mM NaCl, 25 mM imidazole; pH 8.0. […] PLK is concentrated using a 10 kDa molecular weight cutoff membrane and then loaded onto a Superdex 75 gel filtration (Amersham BioSciences) column equilibrated in 25 mM HEPES, 1 mM DTT, 500 mM NaCl; pH 8.0. Fractions containing PLK are determined by SDS-PAGE. PLK is pooled, aliquoted and stored at […]. Samples are quality controlled using mass spectrometry.
B. Enzyme Activity±Inhibitors is Determined As Follows:
Compounds are added to the plate (1 μL in 100% DMSO).
Immediately upon addition of enzyme and thorough mixing, add 20 uL per well into 384-well white plates containing compounds and controls. […] The enzymatic reaction is stopped with 50 μl of bead mix (50 mM EDTA, 2 mg/ml Streptavidin-coated SPA beads in Standard Dulbecco's PBS (without Mg^2+and Ca^2+), and 60 μM ATP).

T1 sequence (P53350 21-346): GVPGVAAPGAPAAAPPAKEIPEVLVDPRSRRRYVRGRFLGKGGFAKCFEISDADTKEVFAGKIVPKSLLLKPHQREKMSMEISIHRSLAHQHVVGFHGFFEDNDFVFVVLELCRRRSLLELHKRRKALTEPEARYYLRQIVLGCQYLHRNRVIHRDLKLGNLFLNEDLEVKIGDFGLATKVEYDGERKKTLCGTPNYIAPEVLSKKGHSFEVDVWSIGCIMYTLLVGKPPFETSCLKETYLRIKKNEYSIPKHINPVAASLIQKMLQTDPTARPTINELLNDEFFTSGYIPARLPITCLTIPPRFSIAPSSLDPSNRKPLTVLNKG

SMILES	IC50
Cc1nc(-c2ccccc2)n2nc(Nc3ccc(OCCN4CCOCC4)cc3)ncc12 [Example 102, 5-Methyl-N-(4-{[2-(4-morpholinyl)ethyl]oxy}phenyl)-7-phenylimidazo[5,1-f][1,2,4]triazin-2-amine]	100 to 10000 nM
COc1cc(Nc2ncc3c(C)nc(-c4cccc(C#Cc5cn[nH]c5)c4)n3n2)cc(OC)c1OC [Example 58, 5-Methyl-7-[3-(1H-pyrazol-4-ylethynyl)phenyl]-N-(3,4,5-trimethoxyphenyl)imidazo[5,1-f][1,2,4]triazin-2-amine]	100 to 10000 nM
COc1cc(Nc2ncc3c(C)nc(-c4cccc(N)c4)n3n2)cc(OC)c1OC [Example 31, 7-(3-Aminophenyl)-5-methyl-N-(3,4,5-trimethoxyphenyl)imidazo-[5,1-f][1,2,4]triazin-2-amine]	< 100 nM
COc1cc(Nc2ncc3c(C)nc(-c4sccc4Br)n3n2)cc(OC)c1OC [Example 10, 7-(3-Bromothien-2-yl)-5-methyl-N-(3,4,5-trimethoxyphenyl)-imidazo[1,5-f][1,2,4]triazin-2-amine]	100 to 10000 nM
COc1cc(Nc2ncc3c(C)nc(C4CCCCC4)n3n2)cc(OC)c1OC [Example 90, 7-Cyclohexyl-5-methyl-N-[3,4,5-tris(methyloxy)phenyl]imidazo[5,1-f][1,2,4]triazin-2-amine]	100 to 10000 nM
CSc1ccc(Nc2ncc3c(C)nc(-c4ccccc4)n3n2)cc1 [Example 95, 5-Methyl-N-[4-(methylthio)phenyl]-7-phenylimidazo[5,1-f][1,2,4]triazin-2-amine]	100 to 10000 nM
COc1ccc(Nc2ncc3c(C)nc(-c4cccc(F)c4)n3n2)cc1 [Example 89, 7-(3-Fluorophenyl)-5-methyl-N-[4-(methyloxy)phenyl]imidazo[5,1-f][1,2,4]triazin-2-amine]	100 to 10000 nM
COc1ccc(Nc2ncc3c(C)nc(-c4ccccc4)n3n2)cc1 [Example 104, 5-Methyl-N-[4-(methyloxy)phenyl]-7-phenylimidazo[5,1-f][1,2,4]triazin-2-amine]	100 to 10000 nM
COc1ccc(Nc2ncc3c(C)nc(-c4ccccc4OC)n3n2)cc1 [Example 73, 5-Methyl-7-[2-(methyloxy)phenyl]-N-[4-(methyloxy)phenyl]-imidazo[5,1-f][1,2,4]triazin-2-amine]	100 to 10000 nM
COc1cc(Nc2ncc3c(C)nc(-c4cccc(-c5cccc(C(=O)O)c5)c4)n3n2)cc(OC)c1OC [Example 59, 3′-{5-Methyl-2-[(3,4,5-trimethoxyphenyl)amino]imidazo[5,1-f][1,2,4]triazin-7-yl}-1,1′-biphenyl-3-carboxylic acid]	100 to 10000 nM
COc1ccc(Nc2ncc3c(C)nc(-c4ccco4)n3n2)cc1 [Example 81, 7-(2-Furanyl)-5-methyl-N-[4-(methyloxy)phenyl]imidazo-[5,1-f][1,2,4]triazin-2-amine]	100 to 10000 nM
COc1ccc(Nc2ncc3c(C)nc(-c4ccccc4F)n3n2)cc1 [Example 86, 7-(2-FluorophenylFluorophenyl)-5-methyl-N-[4-(methyloxy)phenyl]imidazo[5,1-f][1,2,4]triazin-2-amine]	100 to 10000 nM
CCOC(=O)c1cncc(Nc2ncc3c(C)nc(-c4cccc(C(F)(F)F)c4)n3n2)c1 [Example 56, Ethyl 5-({5-methyl-7-[3-(trifluoromethyl)phenyl]imidazo[5,1-f][1,2,4]triazin-2-yl}amino)nicotinate]	100 to 10000 nM
COc1ccc(CCNC(C)=O)cc1Nc1ncc2c(C)nc(-c3cccc(C(F)(F)F)c3)n2n1 [Example 52, N-{2-[4-Methoxy-3-({5-methyl-7-[3-(trifluoromethyl)phenyl]-imidazo[5,1-f][1,2,4]triazin-2-yl}amino)phenyl]ethyl}acetamide]	< 100 nM
COc1cc(Nc2ncc3c(C)nc(-c4ccccc4)n3n2)cc(OC)c1 [Example 93, N-[3,5-Bis(methyloxy)phenyl]-5-methyl-7-phenylimidazo[5,1-f][1,2,4]triazin-2-amine]	100 to 10000 nM
COc1ccccc1-c1nc(C)c2cnc(Nc3cc(OC)c(OC)c(OC)c3)nn12 [Example 21, 7-(2-Methoxyphenyl)-5-methyl-N-(3,4,5-trimethoxyphenyl)-imidazo[5,1-f][1,2,4]triazin-2-amine]	100 to 10000 nM
COc1cc(Nc2ncc3c(C)nc(-c4ccc([N+](=O)[O-])[nH]4)n3n2)cc(OC)c1OC [Example 33, 5-Methyl-7-(5-nitro-1H-pyrrol-2-yl)-N-(3,4,5-trimethoxyphenyl)-imidazo[5,1-f][1,2,4]triazin-2-amine]	100 to 10000 nM

SMILES	IC50
Cc1nc(-c2ccccc2)n2nc(Nc3ccc([N+](=O)[O-])cc3)ncc12 [Example 18, 5-Methyl-N-(4-nitrophenyl)-7-phenylimidazo[5,1-f][1,2,4]triazin-2-amine]	100 to 10000 nM
COc1cc(Nc2ncc3c(C)nc(-c4ccccc4Sc4ccccc4C#N)n3n2)cc(OC)c1OC [Example 38, 2-[(2-{5-Methyl-2-[(3,4,5-trimethoxyphenyl)amino]imidazo[5,1-f][1,2,4]triazin-7-yl}phenyl)thio]benzonitrile]	100 to 10000 nM
COc1ccc(CCN)cc1Nc1ncc2c(C)nc(-c3cccc(C(F)(F)F)c3)n2n1 [Example 53, N-[5-(2-Aminoethyl)-2-methoxyphenyl]-5-methyl-7-[3-(trifluoromethyl)phenyl]imidazo[5,1-f][1,2,4]triazin-2-amine]	< 100 nM
COc1ccc(OC)c(Nc2ncc3c(C)nc(-c4cccc(C(F)(F)F)c4)n3n2)c1 [Example 55, N-(2,5-Dimethoxyphenyl)-5-methyl-7-[3-(trifluoromethyl)phenyl]-imidazo[5,1-f][1,2,4]triazin-2-amine]	100 to 10000 nM
COc1cc(Nc2ncc3c(C)nc(-c4ccc5[nH]ccc5c4)n3n2)cc(OC)c1OC [Example 37, 7-(1H-Indol-5-yl)-5-methyl-N-(3,4,5-trimethoxyphenyl)imidazo-[5,1-f][1,2,4]triazin-2-amine]	100 to 10000 nM
COc1cc(Nc2ncc3c(C)nc(-c4cccc(Nc5ccc(N6CCOCC6)c(Cl)c5)c4)n3n2)cc(OC)c1OC [Example 66, 7-{3-[(3-Chloro-4-morpholin-4-ylphenyl)amino]phenyl}-5-methyl-N-(3,4,5-trimethoxyphenyl)imidazo[5,1-f][1,2,4]triazin-2-amine]	100 to 10000 nM
Cc1nc(-c2ccccc2)n2nc(Nc3ccc(S(N)(=O)=O)cc3)ncc12 [Example 20, 4-[(5-Methyl-7-phenylimidazo[5,1-f][1,2,4]triazin-2-yl)amino]benzenesulfonamide]	100 to 10000 nM
COc1cc(Nc2ncc3c(C)nc(-c4cccc(/C(=C\C(N)=O)c5ccccc5)c4)n3n2)cc(OC)c1OC [Example 62, (2Z)-3-(3-{5-Methyl-2-[(3,4,5-trimethoxyphenyl)amino]-imidazo[5,1-f][1,2,4]triazin-7-yl}phenyl)-3-phenylprop-2-enamide]	100 to 10000 nM
COc1cc(Nc2ncc3c(C)nc(-c4ccc(Br)s4)n3n2)cc(OC)c1OC [Example 13, 7-(5-Bromothien-2-yl)-5-methyl-N-(3,4,5-trimethoxyphenyl)imidazo-[5,1-f][1,2,4]triazin-2-amine]	100 to 10000 nM
Cc1nc(-c2ccccc2)n2nc(Nc3cccc(C(F)(F)F)c3)ncc12 [Example 26, 5-Methyl-7-phenyl-N-[3-(trifluoromethyl)phenyl]imidazo[5,1-f][1,2,4]triazin-2-amine]	100 to 10000 nM
COc1cc(Nc2ncc3c(C)nc(-c4ccoc4)n3n2)cc(OC)c1OC [Example 36, 7-(3-Furyl)-5-methyl-N-(3,4,5-trimethoxyphenyl)imidazo[5,1-f][1,2,4]triazin-2-amine]	100 to 10000 nM
COc1ccc(F)cc1Nc1ncc2c(C)nc(-c3cccc(C(F)(F)F)c3)n2n1 [Example 51, N-(5-Fluoro-2-methoxyphenyl)-5-methyl-7-[3-(trifluoromethyl)phenyl]-imidazo[5,1-f][1,2,4]triazin-2-amine]	100 to 10000 nM
COc1cc(Nc2ncc3c(C)nc(-c4cccc(Nc5ccc(Cn6cncn6)cc5)c4)n3n2)cc(OC)c1OC [Example 64, 5-Methyl-7-(3-{[4-(1H-1,2,4-triazol-1-ylmethyl)phenyl]amino}-phenyl)-N-(3,4,5-trimethoxyphenyl)imidazo[5,1-f][1,2,4]triazin-2-amine]	100 to 10000 nM
COc1cc(Nc2ncc3c(C)nc(-c4cccc5cccnc45)n3n2)cc(OC)c1OC [Example 40, 5-Methyl-7-quinolin-8-yl-N-(3,4 5-trimethoxyphenyl)imidazo[5,1-f][1,2,4]triazin-2-amine]	> 10000 nM
COc1ccc(Nc2ncc3c(C)nc(CC4CCCCC4)n3n2)cc1 [Example 91, 7-(Cyclohexylmethyl)-5-methyl-N-[4-(methyloxy)phenyl]-imidazo[5,1-f][1,2,4]triazin-2-amine]	100 to 10000 nM
COc1cc(Nc2ncc3c(C)nc(-c4ccc5c(c4)OCO5)n3n2)cc(OC)c1OC [Example 28, 7-(1,3-Benzodioxol-5-yl)-5-methyl-N-(3,4,5-trimethoxyphenyl)-imidazo[5,1-f][1,2,4]triazin-2-amine]	100 to 10000 nM
COc1cc(Nc2ncc3c(C)nc(-c4cccc(Nc5cccc(S(=O)(=O)NC6CC6)c5)c4)n3n2)cc(OC)c1OC [Example 69, N-Cyclopropyl-3-[(3-{5-methyl-2-[(3,4,5-trimethoxyphenyl)amino]imidazo[5,1-f][1,2,4]triazin-7-yl}phenyl)amino]benzenesulfonamide]	100 to 10000 nM
